Patent publication US20200107568A1, “METHOD FOR REDUCING LINGERING SWEET AFTERTASTE” (SUNTORY HOLDINGS LIMITED, priority 2017, published 2020)

Target: T1, taste receptor (Homo sapiens, UniProt Q7RTX0+Q8TE23)
T1 construct: endogenous in cells; host or cells: taste cells in the mouths of human panelists (in vivo tasting test)
T1 sequence (Q8TE23 20-839): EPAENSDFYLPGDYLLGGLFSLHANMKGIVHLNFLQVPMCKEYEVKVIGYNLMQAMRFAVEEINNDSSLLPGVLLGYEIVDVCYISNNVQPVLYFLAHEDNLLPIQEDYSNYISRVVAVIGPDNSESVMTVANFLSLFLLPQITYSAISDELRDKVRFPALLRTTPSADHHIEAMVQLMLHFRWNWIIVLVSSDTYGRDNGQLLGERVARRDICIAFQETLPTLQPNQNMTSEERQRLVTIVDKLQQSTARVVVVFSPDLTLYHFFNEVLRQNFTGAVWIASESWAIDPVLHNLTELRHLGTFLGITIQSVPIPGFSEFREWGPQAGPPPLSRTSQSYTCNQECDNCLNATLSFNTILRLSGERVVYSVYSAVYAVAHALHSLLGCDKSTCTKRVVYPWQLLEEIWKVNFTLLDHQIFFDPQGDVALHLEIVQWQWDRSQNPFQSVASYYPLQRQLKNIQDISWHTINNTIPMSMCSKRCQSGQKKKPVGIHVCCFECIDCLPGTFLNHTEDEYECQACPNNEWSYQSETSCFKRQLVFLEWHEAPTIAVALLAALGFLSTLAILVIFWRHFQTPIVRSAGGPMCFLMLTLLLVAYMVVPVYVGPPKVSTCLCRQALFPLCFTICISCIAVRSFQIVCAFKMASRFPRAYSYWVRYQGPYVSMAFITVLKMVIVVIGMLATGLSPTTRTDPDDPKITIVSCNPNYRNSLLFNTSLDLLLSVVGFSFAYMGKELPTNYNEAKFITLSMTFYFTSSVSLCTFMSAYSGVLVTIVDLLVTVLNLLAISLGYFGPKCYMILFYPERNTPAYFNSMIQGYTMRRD
T1 sequence (Q7RTX0 21-852): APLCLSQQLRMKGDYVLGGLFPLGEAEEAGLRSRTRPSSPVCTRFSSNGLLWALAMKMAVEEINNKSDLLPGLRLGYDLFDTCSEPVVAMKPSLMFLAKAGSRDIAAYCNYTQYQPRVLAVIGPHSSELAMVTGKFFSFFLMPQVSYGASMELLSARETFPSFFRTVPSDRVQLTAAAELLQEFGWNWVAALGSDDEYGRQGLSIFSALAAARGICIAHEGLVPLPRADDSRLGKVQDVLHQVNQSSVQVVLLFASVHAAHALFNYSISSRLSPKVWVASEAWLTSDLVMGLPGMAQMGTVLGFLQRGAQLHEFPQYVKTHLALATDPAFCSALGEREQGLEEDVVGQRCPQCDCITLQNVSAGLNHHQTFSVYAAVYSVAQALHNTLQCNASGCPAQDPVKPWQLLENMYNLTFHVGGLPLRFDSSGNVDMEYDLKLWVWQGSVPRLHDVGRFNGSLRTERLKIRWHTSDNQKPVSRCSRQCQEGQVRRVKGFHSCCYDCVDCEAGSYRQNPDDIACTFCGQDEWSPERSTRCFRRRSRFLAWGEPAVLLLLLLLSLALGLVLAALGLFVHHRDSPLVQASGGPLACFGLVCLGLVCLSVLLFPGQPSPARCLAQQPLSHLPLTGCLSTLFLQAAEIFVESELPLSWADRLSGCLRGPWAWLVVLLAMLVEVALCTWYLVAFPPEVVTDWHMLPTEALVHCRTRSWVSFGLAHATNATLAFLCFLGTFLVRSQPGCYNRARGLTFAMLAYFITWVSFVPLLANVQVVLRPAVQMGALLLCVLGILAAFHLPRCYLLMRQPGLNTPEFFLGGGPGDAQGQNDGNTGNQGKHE
Assay: Evaluation of sweet lingering by sensory panel, VAS sweetness intensity rating
Format: in vivo
Settings: with respect to rebaudioside D (reference solution α1, 593 ppm); blend 1:1; N=4; found/theoretical index minus 1
Protocol: (1) A reference solution α (a beverage containing only a high-intensity sweetener as a sweetener), a reference solution β (a beverage containing another sweetener and having the same sweetness intensity as the reference solution α), and a sample solution γ (a beverage composed of a mixture of the reference solutions α and β at a predetermined ratio as a sample solution) are prepared in individual cups. (2) The mouth is rinsed thoroughly with water and emptied. This rinsing process is repeated four times. (3) A defined amount (10 ml) of the reference solution α, or β, or the sample solution γ is put in the mouth in one breath, and spit out after 5 sec. […]
A sweet lingering was measured by the above-described method of with respect to each of 3 solutions of a reference solution α, a reference solution β, and a sample solution γ composed thereof, which were adjusted to the same sweetness intensity. The order of the measurements was determined randomly for each evaluator. Next, the theoretical value of the sweet lingering of a sample solution γ is determined from the blend ratio (A:B) of the reference solution α to the reference solution β. […]
Each panel evaluated the respective sweet lingering of the reference solutions α1, and β1, and the sample solution γ1 by the above-described method. […]

Row | Effect of reducing a sweet lingering [%] | Molecule
1 | 7 | O=C(CO)[C@@H](O)[C@H](O)[C@H](O)CO [fructose]
2 | 43 | thaumatin
